We go through eleven compounds from US7544689B2, “Purine derivatives” (Cyclacel Limited, priority 2002, dated 2009).

One series deals with T1, CDK4/cyclin D1 (Homo sapiens, UniProt P11802).
T1 construct: His6; made in house; host or cells: CDK4: Sf9 insect cells (baculovirus); cyclin D1: E. coli
Briefly: Kinase assay, CDK4/cyclin D1 inhibition. Format: biochemical.

The next series addresses T2, CDK2/cyclin E (Homo sapiens, UniProt P24941).
T2 construct: His6; made in house; host or cells: Sf9 insect cells (baculovirus)
The series can be described thus: Kinase assay, CDK2/cyclin E inhibition. It is filed as biochemical.

In a further series the target is T3, CDK7/cyclin H (Homo sapiens, UniProt P50613).
T3 construct: His6; made in house; host or cells: Sf9 insect cells (baculovirus)
The series can be described thus: Kinase assay, CDK7/cyclin H inhibition. It is filed as biochemical.

For series [1], the system named is Human tumour cell lines: A549, HT29, Saos-2. The series can be described thus: 72-h MTT cytotoxicity assay. Format: cell-based. The note with it: for IC50: read-out: In vitro anti-proliferative activity (72 h MTT IC50), 72 h MTT, human tumour cell lines A549, HT29, Saos-2. The procedure:
In short: cells were seeded into 96-well plates according to doubling time and incubated overnight at 37° C. Test compounds were made up in DMSO and a 1/3 dilution series prepared in 100 μL cell media, added to cells (in triplicates) and incubated for 72 ho at 37° C. MTT was made up as a stock of 5 mg/mL in cell media and filter-sterilised. Media was removed from cells followed by a wash with 200 μL PBS. MTT solution was then added at 20 μL per well and incubated in the dark at 37° C. for 4 h. MTT solution was removed and cells again washed with 200 μL PBS. MTT dye was solubilised with 200 μL per well of DMSO with agitation.

The next series has as its target T4, ERK2 (Homo sapiens, UniProt P28482).
T4 construct: purchased Upstate Biotechnology
Briefly: Kinase assay, ERK-2 inhibition. Format: biochemical.

Another series has as its target T5, CDK1/cyclin B (Homo sapiens, UniProt P06493).
T5 construct: His6; made in house; host or cells: Sf9 insect cells (baculovirus)
The series can be described thus: Kinase assay, CDK1/cyclin B inhibition. Format: biochemical.

For series [2], the target named is T6, cyclic AMP-dependent kinase (PKA) catalytic subunit (Homo sapiens, UniProt P17612).
T6 construct: purchased Calbiochem 539487
The series can be described thus: Kinase assay, PKA inhibition. It is filed as biochemical.
Description: (§1) Recombinant cyclin DI was expressed in E. coli. Proteins were purified by metal chelate affnity chromatography to greater than 90% homogeneity. […] Reactions were stopped on ice, followed by filtration through p81 filterplates or GF/C filterplates (for CDK4) (Whatman Polyfiltronics, Kent, UK), except for CDK7 where, after stopping reaction on ice, 10 μL of 10 mg/mL avidin was added to each well and further incubated for 10 min followed by filtration as per CDK2 assay. After washing 3 times with 75 mM aq orthophosphoric acid, plates were dried, scintillant added and incorporated radioactivity measured in a scintillation counter (TopCount, Packard Instruments, Pangbourne, Berks, UK). Compounds for kinase assay were made up as 10 mM stocks in DMSO and diluted into 10% DMSO in assay buffer.

Series [3] is described as follows: Comparative in vitro metabolism assay (microsomal incubation). The conditions noted are these: for % Drug after 30 min. microsomal incubation: 10 μM compound, 0.2 mg microsomal protein, NADPH; for A: % Compound remaining/% roscovitine remaining: ratio to roscovitine, 30 min microsomal incubation.
Description: Calibration curves were prepared at 0, 1, and 10 μM in microsomes pre-incubated for 30 min and these were also treated with methanol containing olomoucine. All samples were then centrifuged and the supernatants analysed by liquid chromatography-mass spectrometry.
The chromatography column was a Supelco LC-ABZ, 50×4.6 mm, 5 μm zwitterionic column (Supelco Inc., Supelco Park, Bellefonte, Pa., USA). Gradient eluants consisted of methanol (A) and 0.1% formic acid in water (B). […] The flow rate was 1 mL/min throughout. […] Eluant from the detector passed, without splitting, into a Thermoquest LCQ ion trap mass spectrometer fitted with an electrospray source operated in positive mode. Mass spectrometer conditions were sheath gas 80, auxiliary gas 20 (both arbitrary units), capillary voltage 4 to 4.5 kV and heated capillary temperature 250 to 280° C. The mass range was 50-750. Scan time was controlled by the ion trap which was set to a maximum ion injection-time of 200 ms or the time required to inject 2×10^8 ions; for each scan the system automatically used whichever time was reached first.
The subject of series [4] is representative panel of human transformed tumour cell lines. Briefly: Average anti-proliferative activity in tumour cell line panel. It is filed as cell-based. The conditions noted are these: average over representative panel of human transformed tumour cell lines.

T1 sequence (P11802 whole entry): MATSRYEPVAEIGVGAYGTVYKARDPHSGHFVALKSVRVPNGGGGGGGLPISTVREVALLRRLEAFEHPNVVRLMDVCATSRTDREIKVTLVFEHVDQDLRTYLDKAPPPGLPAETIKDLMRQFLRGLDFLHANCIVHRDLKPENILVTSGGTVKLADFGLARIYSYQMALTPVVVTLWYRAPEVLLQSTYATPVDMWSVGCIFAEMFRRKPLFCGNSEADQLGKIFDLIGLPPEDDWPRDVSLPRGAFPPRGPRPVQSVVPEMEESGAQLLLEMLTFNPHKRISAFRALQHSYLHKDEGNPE
T1 sequence (P24385 whole entry partner): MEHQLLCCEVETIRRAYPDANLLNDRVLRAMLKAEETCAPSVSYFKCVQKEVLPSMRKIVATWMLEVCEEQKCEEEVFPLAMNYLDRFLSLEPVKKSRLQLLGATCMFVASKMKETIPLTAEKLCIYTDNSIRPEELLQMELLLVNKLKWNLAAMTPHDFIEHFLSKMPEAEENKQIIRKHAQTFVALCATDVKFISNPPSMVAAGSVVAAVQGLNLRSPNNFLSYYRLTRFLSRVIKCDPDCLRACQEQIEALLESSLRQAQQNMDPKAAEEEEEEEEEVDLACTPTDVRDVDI
T3 sequence (P50613 whole entry): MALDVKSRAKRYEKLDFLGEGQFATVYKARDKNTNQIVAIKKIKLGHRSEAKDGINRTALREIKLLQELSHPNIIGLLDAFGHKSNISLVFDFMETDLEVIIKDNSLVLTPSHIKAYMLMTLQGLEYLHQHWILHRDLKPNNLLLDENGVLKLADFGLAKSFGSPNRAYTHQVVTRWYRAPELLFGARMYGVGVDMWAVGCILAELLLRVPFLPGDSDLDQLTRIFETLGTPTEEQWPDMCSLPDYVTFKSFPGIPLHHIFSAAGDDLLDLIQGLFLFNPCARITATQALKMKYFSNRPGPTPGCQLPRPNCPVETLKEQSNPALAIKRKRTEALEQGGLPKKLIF
T3 sequence (P51946 whole entry partner): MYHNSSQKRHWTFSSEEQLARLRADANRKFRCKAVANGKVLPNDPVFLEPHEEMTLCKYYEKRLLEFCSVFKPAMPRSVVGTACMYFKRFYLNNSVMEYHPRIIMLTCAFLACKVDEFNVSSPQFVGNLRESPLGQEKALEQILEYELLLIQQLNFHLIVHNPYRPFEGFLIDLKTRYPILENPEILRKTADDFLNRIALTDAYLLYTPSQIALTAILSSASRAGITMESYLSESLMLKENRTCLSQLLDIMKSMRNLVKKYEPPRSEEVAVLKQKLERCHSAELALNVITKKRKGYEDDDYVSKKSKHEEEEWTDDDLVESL
T4 sequence (P28482 whole entry, species assumed): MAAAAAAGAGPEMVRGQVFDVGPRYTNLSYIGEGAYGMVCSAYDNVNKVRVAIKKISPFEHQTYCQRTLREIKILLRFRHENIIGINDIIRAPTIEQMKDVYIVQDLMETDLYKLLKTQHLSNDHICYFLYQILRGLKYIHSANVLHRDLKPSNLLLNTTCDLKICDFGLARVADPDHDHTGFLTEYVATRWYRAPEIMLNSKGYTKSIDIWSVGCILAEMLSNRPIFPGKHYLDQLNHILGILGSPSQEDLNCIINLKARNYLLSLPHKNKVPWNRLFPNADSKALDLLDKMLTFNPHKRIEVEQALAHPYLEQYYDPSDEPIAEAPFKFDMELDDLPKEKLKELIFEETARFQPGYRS
T5 sequence (P06493 whole entry): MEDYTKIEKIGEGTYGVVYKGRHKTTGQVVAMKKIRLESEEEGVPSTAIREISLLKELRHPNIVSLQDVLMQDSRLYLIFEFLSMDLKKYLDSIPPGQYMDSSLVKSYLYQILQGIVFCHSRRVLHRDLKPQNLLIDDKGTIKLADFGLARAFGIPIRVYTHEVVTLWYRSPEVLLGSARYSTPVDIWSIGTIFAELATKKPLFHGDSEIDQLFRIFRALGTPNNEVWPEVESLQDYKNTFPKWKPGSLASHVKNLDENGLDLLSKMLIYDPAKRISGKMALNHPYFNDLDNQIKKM
T5 sequence (P14635 whole entry partner): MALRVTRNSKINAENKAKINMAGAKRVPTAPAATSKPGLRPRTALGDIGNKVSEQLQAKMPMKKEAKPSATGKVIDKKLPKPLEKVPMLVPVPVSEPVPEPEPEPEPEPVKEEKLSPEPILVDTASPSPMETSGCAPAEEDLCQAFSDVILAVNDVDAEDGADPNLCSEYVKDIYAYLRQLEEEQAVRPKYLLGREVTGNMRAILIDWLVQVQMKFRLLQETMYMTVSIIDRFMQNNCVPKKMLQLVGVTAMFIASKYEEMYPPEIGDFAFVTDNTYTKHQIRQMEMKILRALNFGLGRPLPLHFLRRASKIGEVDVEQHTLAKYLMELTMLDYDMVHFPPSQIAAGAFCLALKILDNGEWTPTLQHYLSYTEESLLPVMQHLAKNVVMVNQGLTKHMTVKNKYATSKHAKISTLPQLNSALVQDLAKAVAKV
Description for CDK1/cyclin B: as §1
Description for CDK2/cyclin E: as §1
Description for CDK4/cyclin D1: as §1
Description for CDK7/cyclin H: as §1
Description for ERK2: Reactions were stopped on ice, followed by filtration through p81 filterplates or GF/C filterplates (for CDK4) (Whatman Polyfiltronics, Kent, UK), except for CDK7 where, after stopping reaction on ice, 10 μL of 10 mg/mL avidin was added to each well and further incubated for 10 min followed by filtration as per CDK2 assay. After washing 3 times with 75 mM aq orthophosphoric acid, plates were dried, scintillant added and incorporated radioactivity measured in a scintillation counter (TopCount, Packard Instruments, Pangbourne, Berks, UK). Compounds for kinase assay were made up as 10 mM stocks in DMSO and diluted into 10% DMSO in assay buffer.

For the compound `CC[C@@H](Nc1nc(NCc2ccccn2)c2ncn(C(C)C)c2n1)C(O)C(C)(C)C` (mixture of isomers) [(3RS,4R)-4-{9-Isopropyl-6-[(pyridin-2-ylmethyl)-amino]-9H-purin-2-ylamino}-2,2-dimethyl-hexan-3-ol], the half-maximal inhibitory concentration (IC50) (commonly the concentration that gives 50% inhibition) was 38 µM against CDK4/cyclin D1; 2800 nM against CDK2/cyclin E; 2400 nM against CDK7/cyclin H; 38 µM in series [1]; above 200 µM against ERK2; above 200 µM on CDK1/cyclin B. This compound came in with an IC50 in [2] above 200 µM.

`CC[C@@H](Nc1nc(NCc2ccccn2)c2ncn(C(C)C)c2n1)C(O)C(C)C` (mixture of isomers) [(3RS,4R)-4-{9-Isopropyl-6-[(pyridin-2-ylmethyl)-amino]-9H-purin-2-ylamino}-2-methyl-hexan-3-ol]: the concentration for half-maximal inhibition (IC50) is 32 µM on CDK4/cyclin D1; 3400 nM on CDK2/cyclin E; 3900 nM against CDK7/cyclin H; 23 µM in [1]; above 200 µM on ERK2; 84 µM on CDK1/cyclin B. The compound also displayed an IC50 in [2] above 200 µM.

In the case of `CCC(O)[C@@H](CC)Nc1nc(NCc2ccccn2)c2ncn(C(C)C)c2n1` (mixture of isomers) [(3RS,4R)-4-{9-Isopropyl-6-[(pyridin-2-ylmethyl)-amino]-9H-purin-2-ylamino}-hexan-3-ol], the IC50 was found to be 20 µM at CDK4/cyclin D1; 770 nM at CDK2/cyclin E; 1200 nM against CDK7/cyclin H; 19 µM in series [1]; 230 µM against ERK2; 35 µM against CDK1/cyclin B. For the same compound, the IC50 in series [2] was above 200 µM.

As to `CC[C@H](Nc1nc(NCc2ccccn2)c2ncn(C(C)C)c2n1)C(O)C(C)(C)C` (mixture of isomers) [(3RS,4S)-4-{9-Isopropyl-6-[(pyridin-2-ylmethyl)-amino]-9H-purin-2-ylamino}-2,2-dimethyl-hexan-3-ol], the IC50 against CDK4/cyclin D1 was 22 µM; against CDK2/cyclin E, 1000 nM; at CDK7/cyclin H, 5800 nM; in [1], 33 µM; against ERK2, 137 µM; against CDK1/cyclin B it was above 200 µM. This compound also had an IC50 in series [2] above 200 µM.

As to `CC[C@H](Nc1nc(NCc2ccccn2)c2ncn(C(C)C)c2n1)C(O)C(C)C` (mixture of isomers) [(3RS,4S)-4-{9-Isopropyl-6-[(pyridin-2-ylmethyl)-amino]-9H-purin-2-ylamino}-2-methyl-hexan-3-ol], the IC50 against CDK4/cyclin D1 was 49 µM; on CDK2/cyclin E, 3100 nM; against CDK7/cyclin H, 3300 nM; in series [1], 26 µM; against ERK2 it was above 200 µM; at CDK1/cyclin B, above 200 µM. This compound also showed an IC50 in [2] above 200 µM.

Take `CCC(O)[C@H](CC)Nc1nc(NCc2ccccn2)c2ncn(C(C)C)c2n1` (mixture of isomers) [(3RS,4S)-4-{9-Isopropyl-6-[(pyridin-2-ylmethyl)-amino]-9H-purin-2-ylamino}-hexan-3-ol]: the IC50 came out at 24 µM at CDK4/cyclin D1; 420 nM on CDK2/cyclin E; 2600 nM against CDK7/cyclin H; 27 µM in series [1]; 80 µM on ERK2; 40 µM against CDK1/cyclin B. The IC50 in series [2] is above 200 µM.

For the compound `CC[C@H](Nc1nc(NCc2ccccn2)c2ncn(C(C)C)c2n1)[C@@H](C)O` [(2R3S)-3-{9-Isopropyl-6-[(pyridin-2-ylmethyl)-amino]-9H-purin-2-ylamino}-pentan-2-ol], the IC50 at CDK4/cyclin D1 turned out to be 18 µM; against CDK2/cyclin E it was 50 nM; against CDK7/cyclin H, 2600 nM; in series [1], 9.8 µM; on ERK2, 77 µM; at CDK1/cyclin B it was 8.9 µM. Besides, in series [2], the half-maximal inhibitory concentration (IC50) was above 200 µM. Also, in series [3], the “% Drug after 30 min. microsomal incubation” value is 33%. Besides, the “A: % Compound remaining/% roscovitine remaining” value in [3] is recorded as 1.0. For the same compound, the “A × B” value on CDK2/cyclin E (comparative in vitro efficacy: metabolism ratio × CDK2 ratio) is reported as 1.9. Besides, the “B: IC50 CDK2 roscovitine/IC50 CDK2 compound” value at CDK2/cyclin E (ratio to roscovitine) was 1.9. The “C: IC50 cytotox. roscovitine/IC50 cytotox. compound” value in series [1] (ratio to roscovitine) was 1.2.

For the compound `CC[C@@H](Nc1nc(NCc2ccccn2)c2ncn(C(C)C)c2n1)[C@H](C)O` [(2S3R)-3-{9-Isopropyl-6-[(pyridin-2-ylmethyl)-amino]-9H-purin-2-ylamino}-pentan-2-ol], the IC50 at CDK4/cyclin D1 was 48 µM; against CDK2/cyclin E it was 520 nM; at CDK7/cyclin H, 550 nM; in series [1], 12 µM; at ERK2, 73 µM; against CDK1/cyclin B, 39 µM. The compound also yielded an IC50 in series [2] above 200 µM.

For the compound `CC[C@@H](Nc1nc(NCc2ccccn2)c2ncn(C(C)C)c2n1)C(C)(C)O` [(3R)-3-{9-Isopropyl-6-[(pyridin-2-ylmethyl)-amino]-9H-purin-2-ylamino}-2-methyl-pentan-2-ol], the IC50 was 18 µM on CDK4/cyclin D1; 480 nM on CDK2/cyclin E; 4200 nM against CDK7/cyclin H; 35 µM in series [1]; above 200 µM on ERK2; 44 µM at CDK1/cyclin B. In series [2], this compound came in with a 50% inhibitory concentration (IC50) above 200 µM.

`CC[C@H](CO)Nc1nc(NCc2ccccc2)c2ncn(C(C)C)c2n1` [Roscovitine, reference compound]: in series [3], the “% Drug after 30 min. microsomal incubation” value worked out at 33% and the “A: % Compound remaining/% roscovitine remaining” value was 1.0.

Consider `CC[C@@H](Nc1nc(NCc2ccccc2)c2ncn(C(C)C)c2n1)C(=O)O` [carboxyl derivative, (2R)-2-(6-Benzylamino-9-isopropyl-9H-purin-2-ylamino)-butyric acid], for which the IC50 in series [4] is above 50 µM.
